From article PMC13181761, “New Analogs of the Compstatin Family of Clinical Complement Inhibitors with Low Picomolar Target Affinity” (Journal of Medicinal Chemistry, 2026)
Where two headings read alike, the source gives them in different places. Where a SMILES comes first, the peptide text is derived from it. Bridges are numbered along the chain shown (N, C = ends). [ ]: non-standard residue; d: D form. Trp(1-Me) = Cn1cc(C[C@H](N)C(=O)O)c2ccccc21; Bta = N[C@@H](Cc1csc2ccccc12)C(=O)O; Nva(3-Et) = CCC(CC)[C@H](N)C(=O)O; Asu = N[C@@H](CCCCCC(=O)O)C(=O)O; NMeI = CC[C@H](C)[C@H](NC)C(=O)O; aIle = CC[C@@H](C)[C@H](N)C(=O)O; Sar = CNCC(=O)O

Molecular target: T1, human C3b (Homo sapiens, UniProt P01024)
T1 construct: purchased Complement Technology, Tyler, TX, USA
Test: SPR kinetic binding to immobilized human C3b
Conditions: for fold affinity drop / weaker affinity compared with Cp01: K D ratio vs Cp01
Protocol: Experiments were conducted at 25 °C in HBST buffer (10 mM HEPES, 150 mM NaCl, and 0.05% Tween-20, pH 7.4; XanTec bioanalytics). Human C3b (Complement Technology, Tyler, TX, USA) was immobilized via amine-reactive coupling. […] Individual peptide samples were injected for 120 s, followed by a 180 s dissociation phase. […] Signals from the reference cell and buffer blank injections were subtracted within each dilution series to correct for buffer effects and injection artifacts. Data were fitted to a Langmuir 1:1 binding model to calculate association (k a) and dissociation (k d) rate constants, and the equilibration constant K D is calculated based on the equation: K D = k d/k a. In the case of Cp40 derivatives and Cp60, a single-cycle approach was used for kinetic analysis by injecting 5 increasing concentrations of each compound (0.5-40 nM) consecutively without a regeneration period in between injections. Individual injections within a cycle were 120 s long with a 5 min dissociation phase between injections. […] Analog Cp40 was included in each experimental series as a reference and internal control. Signals from the reference cell and buffer blank injections were subtracted to correct for buffer effects and injection artifacts. Kinetic data were processed in BiaEvaluation (Cytiva) using single-cycle evaluation by global fitting each data set to a Langmuir 1:1 binding model. The reported kinetic parameters (Tables and ) indicate the mean values and standard deviations of three independent experiments. SPR sensorgrams are provided in the Supporting Information.

[1] = SPR, 1:1 Langmuir fit, average of 3 independent experiments, SD in brackets
[2] = SPR screening at 2 and 1 μM, series up to 16 μM, read-out: affinity hC3b (class symbol N.B./W.B.)
[3] = SPR, 1:1 Langmuir fit, average of 3 independent experiments, SD in brackets, read-out: K D, affinity hC3b

T1 sequence (P01024 23-667 limits assumed): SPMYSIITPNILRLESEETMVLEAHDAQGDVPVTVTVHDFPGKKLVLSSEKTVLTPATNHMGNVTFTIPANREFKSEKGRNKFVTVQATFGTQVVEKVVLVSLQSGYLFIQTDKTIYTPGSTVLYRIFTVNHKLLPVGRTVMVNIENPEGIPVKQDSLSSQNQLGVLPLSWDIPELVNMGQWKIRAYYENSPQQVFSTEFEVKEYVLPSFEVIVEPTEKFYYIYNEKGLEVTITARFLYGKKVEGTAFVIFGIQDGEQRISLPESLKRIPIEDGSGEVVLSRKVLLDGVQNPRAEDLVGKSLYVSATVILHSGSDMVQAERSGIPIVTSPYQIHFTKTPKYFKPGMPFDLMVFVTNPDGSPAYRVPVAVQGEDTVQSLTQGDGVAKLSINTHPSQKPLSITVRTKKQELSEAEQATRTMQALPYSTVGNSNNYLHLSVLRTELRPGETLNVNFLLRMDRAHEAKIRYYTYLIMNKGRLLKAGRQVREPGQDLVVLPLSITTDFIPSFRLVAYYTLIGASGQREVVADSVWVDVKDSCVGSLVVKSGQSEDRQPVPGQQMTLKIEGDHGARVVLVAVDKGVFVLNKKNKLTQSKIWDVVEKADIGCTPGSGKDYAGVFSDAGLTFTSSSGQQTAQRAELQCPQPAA
T1 sequence (P01024 749-1663 partner limits assumed): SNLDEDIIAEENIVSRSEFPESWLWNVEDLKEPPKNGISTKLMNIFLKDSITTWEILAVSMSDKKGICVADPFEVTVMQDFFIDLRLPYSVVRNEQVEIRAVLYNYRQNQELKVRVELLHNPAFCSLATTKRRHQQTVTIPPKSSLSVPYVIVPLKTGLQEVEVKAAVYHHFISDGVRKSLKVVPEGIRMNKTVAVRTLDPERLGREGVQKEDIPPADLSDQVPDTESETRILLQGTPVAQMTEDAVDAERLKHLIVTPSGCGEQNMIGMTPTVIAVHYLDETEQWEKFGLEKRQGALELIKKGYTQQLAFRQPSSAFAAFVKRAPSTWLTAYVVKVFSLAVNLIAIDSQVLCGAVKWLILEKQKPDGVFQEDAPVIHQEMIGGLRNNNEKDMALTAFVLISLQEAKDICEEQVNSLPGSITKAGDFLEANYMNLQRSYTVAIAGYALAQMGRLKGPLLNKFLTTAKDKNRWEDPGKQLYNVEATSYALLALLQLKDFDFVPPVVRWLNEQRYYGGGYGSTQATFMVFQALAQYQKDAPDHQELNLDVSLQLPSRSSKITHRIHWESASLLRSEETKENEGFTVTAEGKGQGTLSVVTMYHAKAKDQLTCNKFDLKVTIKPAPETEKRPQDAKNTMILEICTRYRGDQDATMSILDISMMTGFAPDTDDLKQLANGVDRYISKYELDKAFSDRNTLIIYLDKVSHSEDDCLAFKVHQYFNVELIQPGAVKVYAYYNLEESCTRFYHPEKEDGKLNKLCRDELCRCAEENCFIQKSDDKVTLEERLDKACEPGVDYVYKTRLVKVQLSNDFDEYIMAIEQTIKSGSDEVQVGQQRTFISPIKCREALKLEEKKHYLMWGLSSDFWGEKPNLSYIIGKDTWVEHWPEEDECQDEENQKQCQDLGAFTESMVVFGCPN

SMILES	k a, affinity hC3b [1]	k d, affinity hC3b [1]	Kd [2] [nM]	Kd [3] [nM]	further results
CCC(CC)[C@@H]1NC(=O)[C@@H](NC(=O)[C@@H](NC(=O)[C@H](N)Cc2ccc(O)cc2)[C@@H](C)CC)CSSC[C@@H](C(=O)N(C)[C@H](C(N)=O)[C@@H](C)CC)NC(=O)[C@H](CCCNC(=N)N)NC(=O)[C@H](Cc2c[nH]cn2)NC(=O)[C@H](C)NC(=O)CN(C)C(=O)[C@H](Cc2c[nH]c3ccccc23)NC(=O)[C@H](CC(=O)O)NC(=O)[C@H](CCC(N)=O)NC(=O)[C@H](Cc2cn(C)c3ccccc23)NC1=O [Cp40-Val3Dea] (H-[dY]IC[Nva(3-Et)][Trp(1-Me)]QDW[Sar]AHRC[NMeI]-NH2; disulfide 3-13)	4.3(0.7) 10^5 M^–1 s^–1	0.6(0.1) 10^–2 s^–1			
CC[C@H](C)[C@H](NC(C)=O)C(=O)N[C@H]1CSSC[C@@H](C(=O)N[C@H](C(N)=O)[C@@H](C)O)NC(=O)[C@H](CCCNC(=N)N)NC(=O)[C@H](Cc2c[nH]cn2)NC(=O)[C@H](C)NC(=O)CNC(=O)[C@H](Cc2c[nH]c3ccccc23)NC(=O)[C@H](CC(=O)O)NC(=O)[C@H](CCC(N)=O)NC(=O)[C@H](Cc2c[nH]c3ccccc23)NC(=O)[C@H](Cc2c[nH]c3ccccc23)NC1=O [Cp01-Val3Trp]			> 2000		
CC[C@H](C)[C@H](NC(C)=O)C(=O)N[C@H]1CSSC[C@@H](C(=O)N[C@H](C(N)=O)[C@@H](C)O)NC(=O)[C@H](CCCNC(=N)N)NC(=O)[C@H](Cc2c[nH]cn2)NC(=O)[C@H](C)NC(=O)CNC(=O)[C@H](Cc2c[nH]c3ccccc23)NC(=O)[C@H](CO)NC(=O)[C@H](CCC(N)=O)NC(=O)[C@H](Cc2c[nH]c3ccccc23)NC(=O)[C@H](C(C)C)NC1=O [Cp01-Asp6Ser] (Ac-ICVWQSWGAHRCT-NH2; disulfide 2-12)	3.1(0.9) 10^5 M^–1 s^–1	18(3) 10^–2 s^–1		609	
CC[C@H](C)[C@H](NC(C)=O)C(=O)N[C@H]1CSSC[C@@H](C(=O)N[C@H](C(N)=O)[C@@H](C)O)NC(=O)[C@H](CCCNC(=N)N)NC(=O)[C@H](Cc2c[nH]cn2)NC(=O)[C@H](C)NC(=O)CNC(=O)[C@H](Cc2csc3ccccc23)NC(=O)[C@H](CC(=O)O)NC(=O)[C@H](CCC(N)=O)NC(=O)[C@H](Cc2c[nH]c3ccccc23)NC(=O)[C@H](C(C)C)NC1=O [Cp01-Trp7Bta] (Ac-ICVWQD[Bta]GAHRCT-NH2; disulfide 2-12)			> 16000		binding to C3b (result in words) (SPR, listed as W7Bta): strongly impaired affinity
CC[C@H](C)[C@H](NC(C)=O)C(=O)N[C@H]1CSSC[C@@H](C(=O)N[C@H](C(N)=O)[C@@H](C)O)NC(=O)[C@H](CCCCN)NC(=O)[C@H](Cc2c[nH]cn2)NC(=O)[C@H](C)NC(=O)CNC(=O)[C@H](Cc2c[nH]c3ccccc23)NC(=O)[C@H](CC(=O)O)NC(=O)[C@H](CCC(N)=O)NC(=O)[C@H](Cc2c[nH]c3ccccc23)NC(=O)[C@H](C(C)C)NC1=O [Cp01-Arg11Lys] (Ac-ICVWQDWGAHKCT-NH2; disulfide 2-12)	3.0(0.8) 10^5 M^–1 s^–1	15(2) 10^–2 s^–1		502	fold affinity drop / weaker affinity compared with Cp01: ~2 fold
CC[C@H](C)[C@H](NC(C)=O)C(=O)N[C@H]1CSSC[C@@H](C(=O)N[C@H](C(N)=O)[C@@H](C)O)NC(=O)[C@H](CCCNC(=N)N)NC(=O)[C@H](Cc2c[nH]cn2)NC(=O)[C@H](C)NC(=O)CNC(=O)[C@H](Cc2c[nH]c3ccccc23)NC(=O)[C@H](CCCCCC(=O)O)NC(=O)[C@H](CCC(N)=O)NC(=O)[C@H](Cc2c[nH]c3ccccc23)NC(=O)[C@H](C(C)C)NC1=O [Cp01-Asp6Asu] (Ac-ICVWQ[Asu]WGAHRCT-NH2; disulfide 2-12)	1.2(0.5) 10^5 M^–1 s^–1	23(4) 10^–2 s^–1			fold affinity drop / weaker affinity compared with Cp01: 10 fold
CC[C@H](C)[C@H](NC(C)=O)C(=O)N[C@H]1CSSC[C@@H](C(=O)N[C@H](C(N)=O)[C@@H](C)O)NC(=O)[C@H](CCCNC(=N)N)NC(=O)[C@H](Cc2c[nH]cn2)NC(=O)[C@H](C)NC(=O)CNC(=O)[C@H](Cc2c[nH]c3ccccc23)NC(=O)[C@H](CC(=O)O)NC(=O)[C@H](CCC(N)=O)NC(=O)[C@H](Cc2c[nH]c3ccccc23)NC(=O)[C@H](Cc2ccc(O)cc2)NC1=O [Cp01 Val3Tyr] (Ac-ICYWQDWGAHRCT-NH2; disulfide 2-12)			> 2000		
CC[C@H](C)[C@H](NC(C)=O)C(=O)N[C@H]1CSSC[C@@H](C(=O)N[C@H](C(N)=O)[C@@H](C)O)NC(=O)[C@H](CCCNC(=N)N)NC(=O)[C@H](Cc2c[nH]cn2)NC(=O)[C@H](C)NC(=O)CNC(=O)[C@H](Cc2c[nH]c3ccccc23)NC(=O)[C@H](CC(=O)O)NC(=O)[C@H](CCCCN)NC(=O)[C@H](Cc2c[nH]c3ccccc23)NC(=O)[C@H](C(C)C)NC1=O [Cp01-Gln5Lys] (Ac-ICVWKDWGAHRCT-NH2; disulfide 2-12)			> 2000		binding to C3b (result in words) (SPR): no detectable target binding
CC[C@@H](C)[C@@H]1NC(=O)[C@@H](NC(=O)[C@@H](NC(=O)[C@H](N)Cc2ccc(O)cc2)[C@@H](C)CC)CSSC[C@@H](C(=O)N(C)[C@H](C(N)=O)[C@@H](C)CC)NC(=O)[C@H](CCCNC(=N)N)NC(=O)[C@H](Cc2c[nH]cn2)NC(=O)[C@H](C)NC(=O)CN(C)C(=O)[C@H](Cc2c[nH]c3ccccc23)NC(=O)[C@H](CC(=O)O)NC(=O)[C@H](CCC(N)=O)NC(=O)[C@H](Cc2cn(C)c3ccccc23)NC1=O [Cp40-Val3aIle] (H-[dY]IC[aIle][Trp(1-Me)]QDW[Sar]AHRC[NMeI]-NH2; disulfide 3-13)	4.6(0.7) 10^5 M^–1 s^–1	0.7(0.3) 10^–2 s^–1		15.6	

Continued, in another order:

k a, affinity hC3b [1]	k d, affinity hC3b [1]	Kd [2] [nM]	Kd [3] [nM]	SMILES	further results
3.8(1.6) 10^5 M^–1 s^–1	18(2) 10^–2 s^–1		528	CC[C@H](C)[C@H](NC(C)=O)C(=O)N[C@H]1CSSC[C@@H](C(=O)N[C@H](C(N)=O)[C@@H](C)O)NC(=O)[C@H](CCCNC(=N)N)NC(=O)[C@H](Cc2c[nH]cn2)NC(=O)[C@H](C)NC(=O)CNC(=O)[C@H](Cc2c[nH]c3ccccc23)NC(=O)[C@H](CCC(=O)O)NC(=O)[C@H](CCC(N)=O)NC(=O)[C@H](Cc2c[nH]c3ccccc23)NC(=O)[C@H](C(C)C)NC1=O [Cp01-Asp6Glu] (Ac-ICVWQEWGAHRCT-NH2; disulfide 2-12)	fold affinity drop / weaker affinity compared with Cp01: 2 fold
2.0(0.5) 10^5 M^–1 s^–1	11(1) 10^–2 s^–1		552	CC[C@H](C)[C@H](NC(C)=O)C(=O)N[C@H]1CSSC[C@@H](C(=O)N[C@H](C(N)=O)[C@@H](C)O)NC(=O)[C@H](CCCNC(=N)N)NC(=O)[C@H](Cc2c[nH]cn2)NC(=O)[C@H](C)NC(=O)CNC(=O)[C@H](Cc2c[nH]c3ccccc23)NC(=O)[C@H](CC(=O)O)NC(=O)[C@H](CCC(N)=O)NC(=O)[C@H](Cc2c[nH]c3ccccc23)NC(=O)[C@H](CC(C)C)NC1=O [Cp01-Val3Leu] (Ac-ICLWQDWGAHRCT-NH2; disulfide 2-12)	
		> 2000		CC[C@H](C)[C@H](NC(C)=O)C(=O)N[C@H]1CSSC[C@@H](C(=O)N[C@H](C(N)=O)[C@@H](C)O)NC(=O)[C@H](CCCNC(=N)N)NC(=O)[C@H](Cc2c[nH]cn2)NC(=O)[C@H](C)NC(=O)[C@H](C)NC(=O)[C@H](Cc2c[nH]c3ccccc23)NC(=O)[C@H](CC(=O)O)NC(=O)[C@H](CCC(N)=O)NC(=O)[C@H](Cc2c[nH]c3ccccc23)NC(=O)[C@H](C(C)C)NC1=O [Cp01-Gly8Ala] (Ac-ICVWQDWAAHRCT-NH2; disulfide 2-12)	binding to C3b (result in words) (SPR): diminished target binding
		> 2000		CC[C@H](C)[C@H](NC(C)=O)C(=O)N[C@H]1CSSC[C@@H](C(=O)N[C@H](C(N)=O)[C@@H](C)O)NC(=O)[C@H](CCCNC(=N)N)NC(=O)[C@H](Cc2c[nH]cn2)NC(=O)[C@H](C)NC(=O)CNC(=O)[C@H](Cc2c[nH]c3ccccc23)NC(=O)[C@H](CC(=O)O)NC(=O)[C@H](CCC(N)=O)NC(=O)[C@H](Cc2c[nH]c3ccccc23)NC(=O)[C@H](C)NC1=O [Cp01-Val3Ala]	
5.4(1.5) 10^5 M^–1 s^–1	11(1) 10^–2 s^–1		219	CC[C@H](C)[C@H](NC(C)=O)C(=O)N[C@H]1CSSC[C@@H](C(=O)N[C@H](C(N)=O)[C@@H](C)O)NC(=O)[C@H](CCCNC(=N)N)NC(=O)[C@H](Cc2c[nH]cn2)NC(=O)[C@H](C)NC(=O)CNC(=O)[C@H](Cc2c[nH]c3ccccc23)NC(=O)[C@H](CC(N)=O)NC(=O)[C@H](CCC(N)=O)NC(=O)[C@H](Cc2c[nH]c3ccccc23)NC(=O)[C@H](C(C)C)NC1=O [Cp01-Asp6Asn] (Ac-ICVWQNWGAHRCT-NH2; disulfide 2-12)	
